Results as given in patent US20190282563A1, “Selective c-FLIP Inhibitors as Anticancer Agents” (Centre National de la Recherche Scientifique, priority 2016, published 2019).
“Also recorded” adds a separate entry of the source.

B1: TRAIL: death ligand TRAIL; KillerTRAIL (human recombinant BULK) purchased from Alexis Biochemicals (protein, UniProt P50591 39-281, looked up)
extracellular domain: TNELKQMQDKYSKSGIACFLKEDDSYWDPNDEESMNSPCWQVKWQLRQLVRKMILRTSEETISTVQEKQQNISPLVRERGPQRVAAHITGTRGRSNTLSSPNSKNEKALGRKINSWESSRSGHSFLSNLHLRNGELVIHEKGFYYIYSQTYFRFQEEIKENTKNDKQMVQYIYKYTSYPDPILLMKSARNSCWSKDAEYGLYSIYQGGIFELKENDRIFVSVTNEHLIDMDHEASFFGAFLVG
modifications: extracellular domain KillerTRAIL recombinant, Alexis
notes: death ligand TRAIL; KillerTRAIL (human recombinant BULK) purchased from Alexis Biochemicals

Experiments:
cFLIP/FADD interaction = target: T1, cFLIP/FADD interaction (Homo sapiens, UniProt O15519); assay: Pull down assay of FADD/c-FLIP interaction (MBP-trap column, Western blot); assay type: binding; settings: c-FLIP(s) and FADD incubated 18 hours with molecule at different concentrations
T1 construct: made in house; host or cells: E. coli: Rosetta (pET24b, c-FLIP(s)) and DH5α (pMALC2, FADD)
Method: Transformation of Competent Bacteria. FLIP (s) and FADD genes were previously cloned and inserted in their respective plasmids pET24b and pMALC2, and provided as a kind gift from Pr. Richard Daniellou (ICOA, Orléans, France). Pet24b and Pmalc2 plasmids were mixed with their corresponding competent bacterial cells, Rosetta and DH5α cells respectively, and left on ice for 20 minutes. Heat-shocking steps were performed before adding LB medium and leaving cells to grow on 37° C. for 1 hour and then cells were spread on LB plates with appropriate antibiotics and incubated at 37° C. overnight.
Production of c-FLIP (s) and FADD proteins. Transformed competent cells were cultured in large amounts of LB growth at 37° C. and the expression of each protein was stimulated using 1M IPTG (Isopropyl β-D-1-thiogalactopyranoside) and cells were left to grow for 18 hours at 30° C. Cells were collected, centrifuged and resuspended in Tris/NaCl buffer (Tris 50 mM, NaCl 100 mM, pH 8.0) after which they were centrifuged at 6000 g, for 10 minutes at 4° C. Supernatant was removed and bacterial pellets were used for cell lysis and protein purification on Ni-NTA column and MBP-trap column for cFLIP(s) and FADD purification, respectively. The FLIP(s) is a His-tagged protein, and FADD is a MBP-tagged protein. The purified proteins were incubated with each molecule for 18 hours at +4° C. and then, the samples were passed again on MBP-trap columns.
Western Blot Analysis. The samples, purified and obtained after FADD/FLIP/compounds incubation, were run on 4-12% Bis-Tris polyacrylamide gels to evaluate the presence of FLIP and FADD bands.
Once purified, c-FLIP(s) and FADD were incubated for 18 hours with each one of the nine c-FLIP inhibitors at different concentrations. The samples were then passed on a MBP-trap column, which binds FADD (MBP-tagged protein). If cFLIP is still bound to FADD, then it is captured with FADD on the MBP column. Samples were then evaluated using a Western blot analysis by monitoring the disappearance of the c-FLIP band with increasing concentration of the c-FLIP inhibitor. Disappearance of the c-FLIP band in Western Blot corresponds to FADD-c-FLIP interaction inhibition.

H1703-Mock cells [1] = assay: Cleavage of caspase-8, caspase-3 and PARP in H1703-mock cells; assay type: cell-based, Human
Text: (§1) Reactivation of the Apoptotic Pathway by c-FLIP inhibitors combined with TRAIL: Cleavage of caspases is a marker of apoptosis pathway initiation. Thus, the present Inventors have studied the cleavage of caspase-8, of caspase-3 and of PARP (a caspase-3 substrate, which undergoes cleavage during apoptosis) in H1703-mock cells and in H1703-FLIP(L) cells, in the presence of TRAIL alone, in the presence of a c-FLIP inhibitor (molecules (1), (3), (4) and (9)), and of a combination of TRAIL and one of the c-FLIP inhibitors. The results obtained are presented on FIG. 4(A)-(B). […] However, no cleavage was observed when H1703-MOCK cells were treated with a c-FLIP inhibitor alone.

H1703-FLIP(L) cells [2] = assay: Annexin V-PE flow cytometry apoptosis test, H1703-FLIP(L) cells (TRAIL alone, molecule alone or combination); assay type: cell-based, Human; settings: 18 hours; for sensitization to TRAIL-induced apoptosis (percentage of apoptosis, annexin V): molecule at its most suitable concentration combined with TRAIL 100 ng/mL
Method: (§2) Cell Culture. H1703 (Human non-small lung cancer cell line) cells were grown in RPMI 1640 (LONZA) culture media supplemented with 10% fetal bovine serum and puromycine antibiotic (2 μg/ml) from Sigma-Aldrich. The cells were kept in a humidified atmosphere in an incubator at 37° C. and 5% CO2. H1703 cells were a kind gift from O. Micheau (INSERM, Dijon, France).
(§3) Flow Cytometry Analysis. The apoptotic cell death was confirmed by flow cytometry (cytoFLEX, Backman Coulter). After treatment of cells with TRAIL alone, c-FLIP inhibitor alone, or co-admninistration TRAIL/c-FLIP inhibitor, the cells were collected, washed and re-suspended in 1× Annexin binding buffer. Annexin-V-PE was added to cells, and left 20 minutes at room temperature in the dark. Flow cytometric analysis was carried out in the final step.
(§4) Sensitivity of the H1703 cells to TRAIL: The first goal was to verify that the H1703 cells are sensitive to TRAIL. To do so, the cells were treated with TRAIL at a concentration of 100 ng/mL for 18 hours and then the cells were washed and incubated with Annexin V-PE to evaluate the apoptosis level using flow cytometry. […] So, the Inventors applied a range of concentrations for each molecule to determine the appropriate dose that has no toxic effect on the cells when administered alone.
Combination Treatment of TRAIL with each one of the 9 Identified Molecules: Following the identification of the best concentration for each compound, HE1703 cells were treated with TRAIL (100 ng/mL) alone or with one of the 9 identified molecules alone or with a combination of TRAIL and one of the 9 identified molecules for 18 hours. The percentage of apoptosis was measured by flow cytometry using an annexin V test, as described above. The results obtained are presented on FIGS. 2(A, B and C).

H1703-FLIP(L) cells [3] = assay: Cleavage of caspase-8, caspase-3 and PARP in H1703-FLIP(L) cells; assay type: cell-based, Human; settings: H1703 cells overexpressing FLIP
Text: as §1

H1703-Mock cells [4] = assay: Annexin V-PE flow cytometry apoptosis test, H1703-Mock cells; assay type: cell-based, Human; settings: TRAIL 100 ng/mL, 18 hours
Method: as §2, §3, §4

[5] = TRAIL combined with c-FLIP inhibitor
[6] = combination of TRAIL and c-FLIP inhibitor

Molecule | inhibition of the interaction between FADD and c-FLIP (disappearance of the c-FLIP band) (cFLIP/FADD interaction) | cleavage of caspase-8, caspase-3 and PARP (H1703-Mock cells [1]; [5]) | cleavage of caspase-8, caspase-3 and PARP (H1703-Mock cells [1]; c-FLIP inhibitor alone) | sensitization to TRAIL-induced apoptosis (percentage of apoptosis, annexin V) (H1703-FLIP(L) cells [2]) | cleavage of caspase-8, caspase-3 and PARP (H1703-FLIP(L) cells [3]; c-FLIP inhibitor alone) | cleavage of caspase-8, caspase-3 and PARP (H1703-FLIP(L) cells [3]; [6]) | cleavage of caspase-8, caspase-3 and PARP (H1703-Mock cells [1]; TRAIL alone) | level of apoptosis (H1703-Mock cells [4]) | effect of TRAIL alone on apoptosis (H1703-FLIP(L) cells [2]; TRAIL 100 ng/mL, H1703-FLIP(L) cells overexpressing c-FLIP) | cleavage of caspase-8, caspase-3 and PARP (H1703-FLIP(L) cells [3]; TRAIL alone)
Cc1cc(/N=N/c2c(O)nc3ccccc3c2O)ccc1/N=N/c1ccc(C(=O)N(C)C)cc1 [Molecule (1)] | inhibit the interaction between FADD and c-FLIP | cleavage of caspase-8, caspase-3 and PARP | no cleavage | most active | no cleavage observed | induce cleavage of caspase-8, caspase-3 and PARP |  |  |  | 
N#Cc1cc(-c2ccccc2)[nH]c1-c1nccc2ccccc12 [Molecule (3)] | inhibit the interaction between FADD and c-FLIP | cleavage of caspase-8, caspase-3 and PARP | no cleavage | most active | no cleavage observed | induce cleavage of caspase-8, caspase-3 and PARP |  |  |  | 
Cc1c2cnccc2c(C)c2c1c1ccccc1n2CCOC(=O)c1ccccc1 [Molecule (4)] | inhibit the interaction between FADD and c-FLIP | cleavage of caspase-8, caspase-3 and PARP | no cleavage | most active | no cleavage observed | induce cleavage of caspase-8, caspase-3 and PARP |  |  |  | 
NS(=O)(=O)c1ccc(NC(=S)NC(=O)c2ccco2)cc1 [Molecule (6)] | no effect |  |  |  |  |  |  |  |  | 
CC1=C(C)Cc2c(OC(=O)c3ccccc3)ccc(OC(=O)c3ccccc3)c2C1 [Molecule (7)] | inhibit the interaction between FADD and c-FLIP |  |  |  |  |  |  |  |  | 
Cc1cccc(Nc2sc(C(=O)c3cc4cc(Cl)ccc4o3)c(N)c2C#N)c1 [Molecule (9)] | inhibit the interaction between FADD and c-FLIP | cleavage of caspase-8, caspase-3 and PARP | no cleavage | most active | no cleavage observed | induce cleavage of caspase-8, caspase-3 and PARP |  |  |  | 
B1 |  |  |  |  |  |  | cleavage of caspase-8, caspase-3 and PARP | more than 60% | resistant to TRAIL; also recorded: no effect | no cleavage observed
